Data reported in ChEMBL document CHEMBL5143615, “Novel 2-aryl-4-aryloxyquinoline-based fungistatics for Mucor circinelloides. Biological evaluation of activity, QSAR and docking study” (Bioorg Med Chem Lett, 2022).
Converted amounts (≈) assume the structure as drawn. The source made the active and inactive calls. No cut-off for these calls is given here.

Tests used:
Mucor circinelloides [1] = test: Antifungal activity against Mucor circinelloides M5 strain assessed as non-germinated spores and undifferentiated hyphae at 50 ug/ml by microscopic analysis; assay type: functional, organism-based; conditions: dose 50.0 µg/ml
Mucor circinelloides [2] = test: Antifungal activity against Mucor circinelloides M5 strain assessed as complete absence of mycelia at 100 to 150 ug/ml by microscopic analysis; assay type: functional, organism-based; conditions: dose 100-150 µg/ml
[3] = Cytotoxicity against mouse NIH/3T3 cells assessed as reduction in cell viability at 50 ug/ml incubated for 48 hrs by MTT assay (reference value: 93.8 +/- 4.9 %); assay type: toxicity, cell-based, NIH3T3; conditions: at 50 µg/mL, read-out: Activity
[4] = target: T1, Lanosterol 14-alpha demethylase (Mus musculus, UniProt Q8K0C4); test: Inhibition of CYP51 in mouse NIH/3T3 cells assessed as specific enzymatic activity at 50 ug/ml incubated for 48 hrs by ELISA analysis; assay type: ADME, cell-based; conditions: nih/3t3, 48 h, dose 50 µg/ml
T1 sequence (Q8K0C4 whole entry): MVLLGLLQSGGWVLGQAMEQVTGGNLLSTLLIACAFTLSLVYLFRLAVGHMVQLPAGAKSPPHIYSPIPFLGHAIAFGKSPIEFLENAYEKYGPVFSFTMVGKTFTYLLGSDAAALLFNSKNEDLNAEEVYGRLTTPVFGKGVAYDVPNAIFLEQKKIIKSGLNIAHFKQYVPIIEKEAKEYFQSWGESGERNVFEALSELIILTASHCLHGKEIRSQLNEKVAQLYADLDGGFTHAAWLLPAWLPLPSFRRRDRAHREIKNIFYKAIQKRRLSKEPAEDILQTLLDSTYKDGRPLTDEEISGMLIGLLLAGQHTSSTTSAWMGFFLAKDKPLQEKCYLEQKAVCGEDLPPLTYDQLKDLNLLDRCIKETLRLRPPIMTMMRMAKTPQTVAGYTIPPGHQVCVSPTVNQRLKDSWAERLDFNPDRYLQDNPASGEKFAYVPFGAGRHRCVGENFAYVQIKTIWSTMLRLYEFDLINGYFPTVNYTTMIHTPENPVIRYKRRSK

[5] = Cytotoxicity against mouse NIH/3T3 cells assessed as reduction in cell viability at 100 ug/ml incubated for 48 hrs by MTT assay (reference value: 93.8 +/- 4.9 %); assay type: toxicity, cell-based, NIH3T3; conditions: at 100 µg/mL, read-out: Activity
Aspergillus niger = test: Antifungal activity against Aspergillus niger clinical isolate 1 assessed as reduction in fungal growth by broth dilution method; assay type: functional
[6] = target: T1, Lanosterol 14-alpha demethylase; test: Inhibition of CYP51 in mouse NIH/3T3 cells assessed as specific enzymatic activity at 100 ug/ml incubated for 48 hrs by ELISA analysis; assay type: ADME, cell-based; conditions: nih/3t3, 48 h, dose 100 µg/ml
Mucor circinelloides [7] = test: Antifungal activity against Mucor circinelloides R7B wild type strain assessed as reduction in spore germination at 50 ug/ml relative to control; assay type: functional; set-up: scale not given: the % may be the effect or the level left; conditions: dose 50 µg/ml
Microsporum canis [8] = test: Antifungal activity against Microsporum canis clinical isolate 3 assessed as reduction in fungal growth by broth dilution method; assay type: functional
[9] = target: T1, Lanosterol 14-alpha demethylase; test: Inhibition of CYP51 in mouse NIH/3T3 cells assessed as specific enzymatic activity at 200 ug/ml incubated for 48 hrs by ELISA analysis; assay type: ADME, cell-based; conditions: nih/3t3, 48 h, dose 200 µg/ml
[10] = Cytotoxicity against mouse NIH/3T3 cells assessed as reduction in cell viability at 200 ug/ml incubated for 48 hrs by MTT assay (reference value: 93.8 +/- 4.9 %); assay type: toxicity, cell-based, NIH3T3; conditions: at 200 µg/mL, read-out: Activity
Mucor circinelloides [11] = test: Antifungal activity against Mucor circinelloides M5 strain assessed as reduction in spore germination at 50 ug/ml relative to control; assay type: functional; set-up: scale not given: the % may be the effect or the level left; conditions: dose 50 µg/ml
Microsporum canis [12] = test: Antifungal activity against Microsporum canis clinical isolate 1 assessed as reduction in fungal growth by broth dilution method; assay type: functional
Mucor circinelloides [13] = test: Antifungal activity against Mucor circinelloides R7B wild type strain assessed as reduction in fungal growth by broth dilution method; assay type: functional
Mucor circinelloides [14] = test: Antifungal activity against Mucor circinelloides R7B wild type strain assessed as non-germinated spores and undifferentiated hyphae at 50 ug/ml by microscopic analysis; assay type: functional, organism-based; conditions: dose 50.0 µg/ml
Mucor circinelloides [15] = test: Antifungal activity against Mucor circinelloides M5 strain assessed as reduction in spore germination at 25 ug/ml relative to control; assay type: functional; set-up: scale not given: the % may be the effect or the level left; conditions: dose 25 µg/ml
[16] = tested on: Trichophyton mentagrophytes; test: Antifungal activity against Trichophyton mentagrophytes clinical isolate 1 assessed as reduction in fungal growth by broth dilution method; assay type: functional
Mucor circinelloides [17] = test: Antifungal activity against Mucor circinelloides M5 strain assessed as few mycelia with several spores at 50 ug/ml by microscopic analysis; assay type: functional, organism-based; conditions: dose 50.0 µg/ml
Trichophyton rubrum [18] = test: Antifungal activity against Trichophyton rubrum clinical isolate 1 assessed as reduction in fungal growth by broth dilution method; assay type: functional
Mucor circinelloides [19] = test: Antifungal activity against Mucor circinelloides R7B wild type strain assessed as non-germinated spores at 100 to 150 ug/ml by microscopic analysis; assay type: functional, organism-based; conditions: dose 100-150 µg/ml
[20] = tested on: Trichophyton mentagrophytes; test: Antifungal activity against Trichophyton mentagrophytes clinical isolate 2 assessed as reduction in fungal growth by broth dilution method; assay type: functional
Epidermophyton floccosum = test: Antifungal activity against Epidermophyton floccosum clinical isolate 1 assessed as reduction in fungal growth by broth dilution method; assay type: functional
Aspergillus nidulans [21] = test: Antifungal activity against Aspergillus nidulans clinical isolate 2 assessed as reduction in fungal growth by broth dilution method; assay type: functional
Nannizzia gypsea [22] = test: Antifungal activity against Microsporum gypseum clinical isolate 2 assessed as reduction in fungal growth by broth dilution method; assay type: functional
[23] = Cytotoxicity against mouse NIH/3T3 cells assessed as reduction in cell viability at 25 ug/ml incubated for 48 hrs by MTT assay (reference value: 93.8 +/- 4.9 %); assay type: toxicity, cell-based, NIH3T3; conditions: at 25 µg/mL, read-out: Activity
Trichophyton rubrum [24] = test: Antifungal activity against Trichophyton rubrum clinical isolate 2 assessed as reduction in fungal growth by broth dilution method; assay type: functional
Mucor circinelloides [25] = test: Antifungal activity against Mucor circinelloides R7B wild type strain assessed as reduction in spore germination at 150 ug/ml relative to control; assay type: functional; set-up: scale not given: the % may be the effect or the level left; conditions: dose 150 µg/ml
[26] = Cytotoxicity against mouse NIH/3T3 cells assessed as reduction in cell viability at 150 ug/ml incubated for 48 hrs by MTT assay (reference value: 93.8 +/- 4.9 %); assay type: toxicity, cell-based, NIH3T3; conditions: at 150 µg/mL, read-out: Activity
Microsporum canis [27] = test: Antifungal activity against Microsporum canis clinical isolate 2 assessed as reduction in fungal growth by broth dilution method; assay type: functional
[28] = target: T1, Lanosterol 14-alpha demethylase; test: Inhibition of CYP51 in mouse NIH/3T3 cells assessed as specific enzymatic activity at 25 ug/ml incubated for 48 hrs by ELISA analysis; assay type: ADME, cell-based; conditions: nih/3t3, 48 h, dose 25 µg/ml
Mucor circinelloides [29] = test: Antifungal activity against Mucor circinelloides M5 strain assessed as non-germinated spores at 100 to 150 ug/ml by microscopic analysis; assay type: functional, organism-based; conditions: dose 100-150 µg/ml
[30] = target: T1, Lanosterol 14-alpha demethylase; test: Inhibition of CYP51 in mouse NIH/3T3 cells assessed as specific enzymatic activity at 150 ug/ml incubated for 48 hrs by ELISA analysis; assay type: ADME, cell-based; conditions: nih/3t3, 48 h, dose 150 µg/ml
Mucor circinelloides [31] = test: Antifungal activity against Mucor circinelloides R7B wild type strain assessed as complete absence of mycelia at 100 to 150 ug/ml by microscopic analysis; assay type: functional, organism-based; conditions: dose 100-150 µg/ml
Mucor circinelloides [32] = test: Antifungal activity against Mucor circinelloides R7B wild type strain assessed as reduction in spore germination at 25 ug/ml relative to control; assay type: functional; set-up: scale not given: the % may be the effect or the level left; conditions: dose 25 µg/ml
[33] = tested on: Trichophyton mentagrophytes; test: Antifungal activity against Trichophyton mentagrophytes clinical isolate 3 assessed as reduction in fungal growth by broth dilution method; assay type: functional
Mucor circinelloides [34] = test: Antifungal activity against Mucor circinelloides M5 strain assessed as reduction in spore germination at 150 ug/ml relative to control; assay type: functional; set-up: scale not given: the % may be the effect or the level left; conditions: dose 150 µg/ml
Mucor circinelloides [35] = test: Antifungal activity against Mucor circinelloides M5 strain assessed as reduction in fungal growth by broth dilution method; assay type: functional
Nannizzia gypsea [36] = test: Antifungal activity against Microsporum gypseum clinical isolate 1 assessed as reduction in fungal growth by broth dilution method; assay type: functional
Mucor circinelloides [37] = test: Antifungal activity against Mucor circinelloides R7B wild type strain assessed as few mycelia with several spores at 50 ug/ml by microscopic analysis; assay type: functional, organism-based; conditions: dose 50.0 µg/ml
Aspergillus nidulans [38] = test: Antifungal activity against Aspergillus nidulans clinical isolate 1 assessed as reduction in fungal growth by broth dilution method; assay type: functional
Mucor circinelloides [39] = test: Antifungal activity against Mucor circinelloides R7B wild type strain assessed as reduction in spore germination at 100 ug/ml relative to control; assay type: functional; set-up: scale not given: the % may be the effect or the level left; conditions: dose 100 µg/ml
Mucor circinelloides [40] = test: Antifungal activity against Mucor circinelloides M5 strain assessed as reduction in spore germination at 100 ug/ml relative to control; assay type: functional; set-up: scale not given: the % may be the effect or the level left; conditions: dose 100 µg/ml

For OC(Cn1cncn1)(Cn1cncn1)c1ccc(F)cc1F [FLUCONAZOLE], the Activity (Mucor circinelloides [1]) was “Active”, the Activity (Mucor circinelloides [2]) was “Active” and the viability at 48 h, 50 ug/ml [3] was 25%. For the same compound, the Activity [4] was 7.18 U/mg, the viability at 48 h, 100 ug/ml [5] was 18.8% and the MIC (Aspergillus niger) was 50 µg/mL (≈ 163 µM). The Activity [6] was 2.49 U/mg, the Activity (Mucor circinelloides [7]) was 28.2% and the MIC (Microsporum canis [8]) was 50 µg/mL (≈ 163 µM). It also gave an Activity [9] of 0 U/mg, a viability at 48 h, 200 ug/ml [10] of 15.7% and an Activity (Mucor circinelloides [11]) of 30.4%. The MIC (Microsporum canis [12]) was 50 µg/mL (≈ 163 µM), the MIC (Mucor circinelloides [13]) was 150 µg/mL (≈ 490 µM) and the Activity (Mucor circinelloides [14]) was “Active”. For the same compound, the Activity (Mucor circinelloides [15]) was 72.6%, the MIC [16] was 75 µg/mL (≈ 245 µM) and the Activity (Mucor circinelloides [17]) was “Active”. The MIC (Trichophyton rubrum [18]) was 75 µg/mL (≈ 245 µM), the Activity (Mucor circinelloides [19]) was “Active” and the MIC [20] was 75 µg/mL (≈ 245 µM). It also gave an MIC (Epidermophyton floccosum) of 50 µg/mL (≈ 163 µM), an MIC (Aspergillus nidulans [21]) of 50 µg/mL (≈ 163 µM) and an MIC (Nannizzia gypsea [22]) of 50 µg/mL (≈ 163 µM). The viability at 48 h, 25 ug/ml [23] was 98.2%, the MIC (Trichophyton rubrum [24]) was 75 µg/mL (≈ 245 µM) and the Activity (Mucor circinelloides [25]) was 4.8%. For the same compound, the viability at 48 h, 150 ug/ml [26] was 15.5%, the MIC (Microsporum canis [27]) was 50 µg/mL (≈ 163 µM) and the Activity [28] was 12.8 U/mg. For the same compound, the Activity (Mucor circinelloides [29]) was “Active”, the Activity [30] was 1.25 U/mg and the Activity (Mucor circinelloides [31]) was “Active”. It also gave an Activity (Mucor circinelloides [32]) of 83.3%, an MIC [33] of 75 µg/mL (≈ 245 µM) and an Activity (Mucor circinelloides [34]) of 6.7%. The MIC (Mucor circinelloides [35]) was over 150 µg/mL, the MIC (Nannizzia gypsea [36]) was 50 µg/mL (≈ 163 µM) and the Activity (Mucor circinelloides [37]) was “Active”. It also gave an MIC (Aspergillus nidulans [38]) of 50 µg/mL (≈ 163 µM).

In the case of O=[N+]([O-])c1ccc(Oc2cc(-c3cccc(C(F)(F)F)c3)nc3ccccc23)cc1, the Activity (Mucor circinelloides [39]) is reported as 32.8% and the Activity (Mucor circinelloides [40]) is reported as 29.7%.

COc1ccc(-c2cc(OC)c3ccccc3n2)cc1OC showed an Activity (Mucor circinelloides [39]) of 97.1% and an Activity (Mucor circinelloides [40]) of 96.2%.

COc1cc(-c2ccc(Cl)c(Cl)c2)nc2ccccc12 showed an Activity (Mucor circinelloides [39]) of 96.1% and an Activity (Mucor circinelloides [40]) of 93.7%.

In the case of O=[N+]([O-])c1ccc(Oc2cc(-c3ccc(Cl)cc3)nc3ccccc23)cc1, the Activity (Mucor circinelloides [39]) is reported as 81.7% and the Activity (Mucor circinelloides [40]) is reported as 82.9%.

COc1ccc(-c2cc(Oc3ccccc3)c3ccccc3n2)cc1 showed an Activity (Mucor circinelloides [39]) of 94.3% and an Activity (Mucor circinelloides [40]) of 92.1%.

In the case of Fc1ccc(-c2cc(Oc3ccccc3)c3ccccc3n2)cc1, the Activity (Mucor circinelloides [39]) is reported as 39.8% and the Activity (Mucor circinelloides [40]) is reported as 38.6%.
